Experiment [1] relates to Alternaria solani. The experiment in a line: Alternaria solani / tomato / leaf disc (early blight). The note with it: foliar, inoculated 2 days after application, vs untreated control. The experiment is classed as in vivo. As for the experimental part: Example B1: Alternaria solani/Tomato/Leaf Disc (Early Blight) Tomato leaf disks cv. Baby are placed on agar in multiwell plates (24-well format) and sprayed with the formulated test compound diluted in water. The leaf disks are inoculated with a spore suspension of the fungus 2 days after application. The inoculated leaf disks are incubated at 23° C./21° C. (day/night) and 80% relative humidity under a light regime of 12 h/12 h (light/dark) in a climate cabinet and the activity of a compound is assessed as percent disease control compared to untreated when an appropriate level of disease damage appears on untreated check disk leaf disks (5-7 days after application).

Experiment [2] deals with Glomerella lagenarium. Briefly: Glomerella lagenarium (Colletotrichum lagenarium) / liquid culture (anthracnose). The experiment is classed as cell-based. The note with it: Colletotrichum orbiculare, 72 h, photometrically 3-4 days after application, read-out: control of Glomerella lagenarium. As for the experimental part: Example B5: Glomerella Lagenarium (Colletotrichum Lagenarium)/Liquid Culture (Anthracnose) Conidia of the fungus from cryogenic storage are directly mixed into a nutrient broth (potato dextrose broth). After placing a DMSO solution of test compound into a microtiter plate (96-well format), the nutrient broth containing the fungal spores is added. The test plates are incubated at 24° C. and the inhibition of growth is measured photometrically 3-4 days after application.

In experiment [3] the test system is Mycosphaerella graminicola. Briefly: Mycosphaerella graminicola (Septoria tritici) / liquid culture (Septoria blotch). The experiment is classed as cell-based. The note with it: Zymoseptoria tritici, 96 h, photometrically 4-5 days after application, read-out: control of Mycosphaerella graminicola. The method, boiled down: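 Conidia from cryogenic storage mixed into potato dextrose broth, added to test compound in DMSO. Plates incubated at 24° C; growth inhibition read photometrically 4-5 days after application.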

Experiment [4] relates to Mycosphaerella arachidis. Briefly: Mycosphaerella arachidis (Cercospora arachidicola) / liquid culture (early leaf spot). The format is cell-based. The note with it: 96 h, photometrically 4-5 days after application, read-out: control of Mycosphaerella arachidis. In a few lines: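 Cryostored M. arachidis conidia in potato dextrose broth were added to compound applied as DMSO solution. Incubated at 24 °C; growth inhibition measured photometrically 4-5 days after application.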

Experiment [5] has as its system Monographella nivalis. The experiment in a line: Monographella nivalis (Microdochium nivale) / liquid culture (foot rot cereals). The format is cell-based. The note with it: 96 h, photometrically 4-5 days after application, read-out: control of Monographella nivalis. In a few lines: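 Microdochium nivale conidia in potato dextrose broth were added to test compound in DMSO and incubated at 24° C. Growth inhibition was measured photometrically 4-5 days after application.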

Experiment [6] concerns Botryotinia fuckeliana. Briefly: Botryotinia fuckeliana (Botrytis cinerea) / liquid culture (gray mould). The format is cell-based. The note with it: 72 h, growth inhibition photometrically 3-4 days after application, read-out: control of Botryotinia fuckeliana. As for the experimental part:
Example B2: Botryotinia Fuckeliana (Botrytis cinerea)/Liquid Culture (Gray Mould) Conidia of the fungus from cryogenic storage are directly mixed into a nutrient broth (Vogels broth). After placing a DMSO solution of test compound into a microtiter plate (96-well format), the nutrient broth containing the fungal spores is added. The test plates are incubated at 24° C. and the inhibition of growth is determined photometrically 3-4 days after application.

For `Cn1cc(C2CN(C(=O)c3cc(-c4ccccc4)on3)Cc3ccccc32)cn1` (single isomer, unassigned) [Compound P-165], the pest or weed control at 200 ppm in experiment [1] is not below 80%. The inhibition of growth at 20 ppm in experiment [2], in experiment [3], in experiment [4] and in experiment [5] was not below 80% throughout.
In experiment [1], `Cn1cc(C2CN(C(=O)c3nnc(-c4ccc(F)cc4F)o3)Cc3ccccc32)cn1` (stereo not drawn) [Compound P-55, [5-(2,4-difluorophenyl)-1,3,4-oxadiazol-2-yl]-[4-(1-methylpyrazol-4-yl)-3,4-dihydro-1H-isoquinolin-2-yl]methanone] registered a pest or weed control at 200 ppm not below 80%. Besides, the inhibition of growth at 20 ppm in experiment [3] is not below 80%.
In experiment [1], `Cn1cc(C2CN(C(=O)c3noc(-c4cccc(F)c4)n3)Cc3ccccc32)cn1` (stereo not drawn) [Compound P-92, [5-(3-fluorophenyl)-1,2,4-oxadiazol-3-yl]-[4-(1-methylpyrazol-4-yl)-3,4-dihydro-1H-isoquinolin-2-yl]methanone] returned a pest or weed control at 200 ppm not below 80%. In addition, the inhibition of growth at 20 ppm in experiment [2], in experiment [3], in experiment [4] and in experiment [5] was not below 80% throughout.
With `Cc1nn(C)c(C)c1C1CN(C(=O)c2cc(-c3ccc(F)cc3F)sn2)Cc2ccccc21` (stereo not drawn) [Compound P-115, [5-(2,4-difluorophenyl)isothiazol-3-yl]-[4-(1,3,5-trimethylpyrazol-4-yl)-3,4-dihydro-1H-isoquinolin-2-yl]methanone], the pest or weed control at 200 ppm in experiment [1] was not below 80%. In experiment [3], the inhibition of growth at 20 ppm is not below 80%.
In the case of `Cc1nn(C)c(C)c1C1CN(C(=O)c2cc(-c3ccc(F)cc3)on2)Cc2ccccc21` (stereo not drawn) [Compound P-118, [5-(4-fluorophenyl)isoxazol-3-yl]-[4-(1,3,5-trimethylpyrazol-4-yl)-3,4-dihydro-1H-isoquinolin-2-yl]methanone], the pest or weed control at 200 ppm in experiment [1] was not below 80%. The inhibition of growth at 20 ppm in experiment [3] and in experiment [4] was not below 80% throughout.
In the case of `Cc1nn(C)c(C)c1C1CN(C(=O)c2cc(-c3ccc(F)cc3F)on2)Cc2ncccc21` (stereo not drawn) [Compound P-124, [5-(2,4-difluorophenyl)isoxazol-3-yl]-[5-(1,3,5-trimethylpyrazol-4-yl)-6,8-dihydro-5H-1,7-naphthyridin-7-yl]methanone], the pest or weed control at 200 ppm in experiment [1] was not below 80%.
Turning to `Cn1cc(C2CN(C(=O)c3nc(-c4ccc(F)cc4F)no3)Cc3ccccc32)cn1` (stereo not drawn) [Compound P-127, [3-(2,4-difluorophenyl)-1,2,4-oxadiazol-5-yl]-[4-(1-methylpyrazol-4-yl)-3,4-dihydro-1H-isoquinolin-2-yl]methanone], the pest or weed control at 200 ppm in experiment [1] was not below 80%. In addition, the inhibition of growth at 20 ppm in experiment [3] and in experiment [5] was not below 80% each time.
Compound `CCn1cc(C2CN(C(=O)c3cc(-c4ccc(F)cc4F)on3)Cc3ccccc32)cn1` (stereo not drawn) [Compound P-131, [5-(2,4-difluorophenyl)isoxazol-3-yl]-[4-(1-ethylpyrazol-4-yl)-3,4-dihydro-1H-isoquinolin-2-yl]methanone] came in with a pest or weed control at 200 ppm in experiment [1] not below 80%. The inhibition of growth at 20 ppm in experiment [3] is not below 80%.
`Cn1cc(C2CN(C(=O)c3cc(-c4ccc(F)cc4F)on3)Cc3cc(F)ccc32)cn1` (stereo not drawn) [Compound P-134, [5-(2,4-difluorophenyl)isoxazol-3-yl]-[7-fluoro-4-(1-methylpyrazol-4-yl)-3,4-dihydro-1H-isoquinolin-2-yl]methanone] came in with a pest or weed control at 200 ppm in experiment [1] not below 80%. Also, the inhibition of growth at 20 ppm in experiment [3], in experiment [4] and in experiment [5] was not below 80% in each case.
For the compound `Cn1cc(C2CN(C(=O)c3cc(-c4ccc(F)cc4F)on3)Cc3ccc(F)cc32)cn1` (stereo not drawn) [Compound P-135, [5-(2,4-difluorophenyl)isoxazol-3-yl]-[6-fluoro-4-(1-methylpyrazol-4-yl)-3,4-dihydro-1H-isoquinolin-2-yl]methanone], the inhibition of growth at 20 ppm in experiment [3], in experiment [6], in experiment [4] and in experiment [5] was not below 80% each time.
On to `Cc1c(C2CN(C(=O)c3cc(-c4ccc(F)cc4F)on3)Cc3ccccc32)cnn1C` (stereo not drawn) [Compound P-140, [5-(2,4-difluorophenyl)isoxazol-3-yl]-[4-(1,5-dimethylpyrazol-4-yl)-3,4-dihydro-1H-isoquinolin-2-yl]methanone], for which the pest or weed control at 200 ppm in experiment [1] is not below 80%.
Same read-out and setting: the figure for `Cn1cc(C2CN(C(=O)c3noc(-c4ccccc4)n3)Cc3ccccc32)cn1` (stereo not drawn) [Compound P-146, [4-(1-methylpyrazol-4-yl)-3,4-dihydro-1H-isoquinolin-2-yl]-(5-phenyl-1,2,4-oxadiazol-3-yl)methanone] is not below 80%.
As to `Cc1nn(C)c(C)c1C1CN(C(=O)c2cc(-c3ccccc3)on2)Cc2ccccc21` (stereo not drawn) [Compound P-148, (5-phenylisoxazol-3-yl)-[4-(1,3,5-trimethylpyrazol-4-yl)-3,4-dihydro-1H-isoquinolin-2-yl]methanone], the pest or weed control at 200 ppm in experiment [1] is not below 80%. The inhibition of growth at 20 ppm in experiment [3] and in experiment [4] was not below 80% throughout.
Consider `Cn1cc(C2CN(C(=O)c3nnc(-c4ccccc4)o3)Cc3ccccc32)cn1` (stereo not drawn) [Compound P-163, [4-(1-methylpyrazol-4-yl)-3,4-dihydro-1H-isoquinolin-2-yl]-(5-phenyl-1,3,4-oxadiazol-2-yl)methanone], for which the pest or weed control at 200 ppm in experiment [1] is not below 80%.
For the compound `Cn1cc(C2CN(C(=O)c3cc(-c4cccc(F)c4)on3)Cc3ccccc32)cn1` (stereo not drawn) [Compound P-168, [5-(3-fluorophenyl)isoxazol-3-yl]-[4-(1-methylpyrazol-4-yl)-3,4-dihydro-1H-isoquinolin-2-yl]methanone], in experiment [1], the pest or weed control at 200 ppm was not below 80%. Moreover, the inhibition of growth at 20 ppm in experiment [3] was not below 80%.
Consider `Cn1cc(C2CN(C(=O)c3cc(-c4ccsc4)on3)Cc3ccccc32)cn1` (stereo not drawn) [Compound P-181, [4-(1-methylpyrazol-4-yl)-3,4-dihydro-1H-isoquinolin-2-yl]-[5-(3-thienyl)isoxazol-3-yl]methanone], for which, in experiment [1], the pest or weed control at 200 ppm was not below 80%. Further, the inhibition of growth at 20 ppm in experiment [2], in experiment [3] and in experiment [4] was not below 80% in each case.
`Cn1cc(C2CN(C(=O)c3cc(C4CCC4)on3)Cc3ccccc32)cn1` (stereo not drawn) [Compound P-182, (5-cyclobutylisoxazol-3-yl)-[4-(1-methylpyrazol-4-yl)-3,4-dihydro-1H-isoquinolin-2-yl]methanone] yielded a pest or weed control at 200 ppm in experiment [1] not below 80%. Moreover, the inhibition of growth at 20 ppm in experiment [3] and in experiment [4] was not below 80% in each case.
In experiment [1], `Cn1cc(C2CN(C(=O)c3cc(-c4ccccc4F)on3)Cc3ccccc32)cn1` (stereo not drawn) [Compound P-191, [5-(2-fluorophenyl)isoxazol-3-yl]-[4-(1-methylpyrazol-4-yl)-3,4-dihydro-1H-isoquinolin-2-yl]methanone] registered a pest or weed control at 200 ppm not below 80%. For the same compound, the inhibition of growth at 20 ppm in experiment [2], in experiment [3], in experiment [4] and in experiment [5] was not below 80% throughout.
Compound `Cn1cc(C2(C)CN(C(=O)c3nnc(-c4ccc(F)cc4F)s3)Cc3ccccc32)cn1` (stereo not drawn) [Compound P-207, [5-(2,4-difluorophenyl)-1,3,4-thiadiazol-2-yl]-[4-methyl-4-(1-methylpyrazol-4-yl)-1,3-dihydroisoquinolin-2-yl]methanone] registered a pest or weed control at 200 ppm in experiment [1] not below 80%.
Same read-out and setting: under `Cn1cc([C@]2(C)CN(C(=O)c3nnc(-c4ccc(F)cc4F)s3)Cc3ccccc32)cn1` [Compound P-208, [5-(2,4-difluorophenyl)-1,3,4-thiadiazol-2-yl]-[(4R)-4-methyl-4-(1-methylpyrazol-4-yl)-1,3-dihydroisoquinolin-2-yl]methanone] stands not below 80%.
`Cc1c(C2CN(C(=O)c3nnc(-c4ccc(F)cc4F)o3)Cc3ccccc32)cnn1C` (stereo not drawn) [Compound P-225] showed a pest or weed control at 200 ppm in experiment [1] not below 80%.

For orientation: pest or weed control means the degree to which the test organism was suppressed or injured, in per cent. High values mean a strong effect, low ones a weak effect.
